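Growth conditions: 96-well plates. Treatment: test compound, 48 hours, 5 concentrations. Analysis: linear interpolation between bracketing concentrations; unreached endpoints set to highest concentration. The concentration for 50% growth inhibition is given as GI50. TGI marks complete inhibition of growth.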
Legend:
Assay in all cases: growth of human tumour cells (NCI), 48 h
OVCAR-8 ovarian = tested on: OVCAR-8 ovarian
OVCAR-4 ovarian = tested on: OVCAR-4 ovarian
SK-MEL-5 melanoma = tested on: SK-MEL-5 melanoma
IGROV1 ovarian = tested on: IGROV1 ovarian
UACC-62 melanoma = tested on: UACC-62 melanoma
PC-3 prostate = tested on: PC-3 prostate
SK-MEL-28 melanoma = tested on: SK-MEL-28 melanoma
A498 renal = tested on: A498 renal
EKVX NSCLC = tested on: EKVX NSCLC
HCC-2998 colon = tested on: HCC-2998 colon
RPMI-8226 leukemia = tested on: RPMI-8226 leukemia
NCI-H522 lung = tested on: NCI-H522 lung
SF-268 CNS = tested on: SF-268 CNS
ACHN renal = tested on: ACHN renal
NCI-H23 lung = tested on: NCI-H23 lung
OVCAR-5 ovarian = tested on: OVCAR-5 ovarian
HOP-62 NSCLC = tested on: HOP-62 NSCLC
SNB-75 CNS = tested on: SNB-75 CNS
SN12C renal = tested on: SN12C renal
NCI/ADR-RES ovarian = tested on: NCI/ADR-RES ovarian
NCI-H226 lung = tested on: NCI-H226 lung
HOP-92 NSCLC = tested on: HOP-92 NSCLC
MALME-3M melanoma = tested on: MALME-3M melanoma
OVCAR-3 ovarian = tested on: OVCAR-3 ovarian
SK-OV-3 ovarian = tested on: SK-OV-3 ovarian
DU-145 prostate = tested on: DU-145 prostate
K-562 leukemia = tested on: K-562 leukemia
HT29 colon = tested on: HT29 colon
T-47D breast = tested on: T-47D breast
786-0 renal = tested on: 786-0 renal
MDA-MB-231 breast = tested on: MDA-MB-231 breast
HCT-15 colon = tested on: HCT-15 colon
BT-549 breast = tested on: BT-549 breast
TK-10 renal = tested on: TK-10 renal
HCT-116 colon = tested on: HCT-116 colon
HS 578T breast = tested on: HS 578T breast
MDA-MB-435 = tested on: MDA-MB-435
UO-31 renal = tested on: UO-31 renal
RXF 393 renal = tested on: RXF 393 renal
COLO 205 colon = tested on: COLO 205 colon
SK-MEL-2 melanoma = tested on: SK-MEL-2 melanoma
SF-539 CNS = tested on: SF-539 CNS
SNB-19 CNS = tested on: SNB-19 CNS
HL-60(TB) leukemia = tested on: HL-60(TB) leukemia
CCRF-CEM leukemia = tested on: CCRF-CEM leukemia
CAKI-1 renal = tested on: CAKI-1 renal
SF-295 CNS = tested on: SF-295 CNS
U251 CNS = tested on: U251 CNS
A549 NSCLC = tested on: A549 NSCLC
MOLT-4 leukemia = tested on: MOLT-4 leukemia
M14 melanoma = tested on: M14 melanoma
UACC-257 melanoma = tested on: UACC-257 melanoma
SW-620 colon = tested on: SW-620 colon
NCI-H460 lung = tested on: NCI-H460 lung
LOX IMVI melanoma = tested on: LOX IMVI melanoma
KM12 colon = tested on: KM12 colon
SR leukemia = tested on: SR leukemia

## O=C1/C=C/[C@@H](O)[C@@H]2C[C@@H](O)C[C@H]2/C=C/CCC[C@H](CCc2ccc(NC(=S)Nc3ccc4c(c3)C(=O)OC43c4ccc(O)cc4Oc4cc(O)ccc43)cc2)O1
OVCAR-8 ovarian
  GI50: 401 nM
  TGI: > 100000 nM
OVCAR-4 ovarian
  GI50: 333 nM
SK-MEL-5 melanoma
  GI50: 164 nM
  TGI: 311 nM
IGROV1 ovarian
  GI50: 622 nM
  TGI: 2690 nM
UACC-62 melanoma
  GI50: 397 nM
  TGI: 30700 nM
PC-3 prostate
  GI50: 516 nM
  TGI: > 100000 nM
SK-MEL-28 melanoma
  GI50: 263 nM
  TGI: 815 nM
A498 renal
  GI50: 141 nM
  TGI: 458 nM
EKVX NSCLC
  GI50: 409 nM
  TGI: > 100000 nM
HCC-2998 colon
  GI50: 302 nM
RPMI-8226 leukemia
  GI50: 339 nM
  TGI: 2390 nM
NCI-H522 lung
  GI50: 1600 nM
  TGI: 5240 nM
SF-268 CNS
  GI50: 405 nM
  TGI: > 100000 nM
ACHN renal
  GI50: 803 nM
  TGI: > 100000 nM
NCI-H23 lung
  GI50: 439 nM
  TGI: > 74000 nM
OVCAR-5 ovarian
  GI50: 698 nM
  TGI: > 100000 nM
HOP-62 NSCLC
  GI50: 518 nM
  TGI: > 100000 nM
SNB-75 CNS
  GI50: 252 nM
  TGI: > 100000 nM
SN12C renal
  GI50: 2170 nM
  TGI: > 100000 nM
NCI/ADR-RES ovarian
  GI50: 407 nM
  TGI: > 100000 nM
NCI-H226 lung
  GI50: 287 nM
  TGI: 783 nM
HOP-92 NSCLC
  GI50: 932 nM
  TGI: > 27600 nM
MALME-3M melanoma
  GI50: 2260 nM
  TGI: > 100000 nM
OVCAR-3 ovarian
  GI50: 317 nM
  TGI: 862 nM
SK-OV-3 ovarian
  GI50: 578 nM
  TGI: > 100000 nM
DU-145 prostate
  GI50: 2810 nM
  TGI: > 100000 nM
K-562 leukemia
  GI50: 1170 nM
  TGI: > 100000 nM
HT29 colon
  GI50: 365 nM
  TGI: 3610 nM
T-47D breast
  GI50: 1390 nM
  TGI: 76000 nM
786-0 renal
  GI50: 262 nM
  TGI: 771 nM
MDA-MB-231 breast
  GI50: 210 nM
  TGI: 402 nM
HCT-15 colon
  GI50: 889 nM
  TGI: > 100000 nM
BT-549 breast
  GI50: 451 nM
  TGI: 73700 nM
TK-10 renal
  GI50: 608 nM
  TGI: 12600 nM
HCT-116 colon
  GI50: 523 nM
  TGI: 4950 nM
HS 578T breast
  GI50: 305 nM
  TGI: > 100000 nM
MDA-MB-435
  GI50: 377 nM
  TGI: > 100000 nM
UO-31 renal
  GI50: 335 nM
  TGI: > 100000 nM
RXF 393 renal
  GI50: 266 nM
  TGI: 736 nM
COLO 205 colon
  GI50: 208 nM
  TGI: 384 nM
SK-MEL-2 melanoma
  GI50: 456 nM
  TGI: 5220 nM
SF-539 CNS
  GI50: 724 nM
  TGI: > 100000 nM
SNB-19 CNS
  GI50: 590 nM
  TGI: > 100000 nM
HL-60(TB) leukemia
  GI50: 4510 nM
  TGI: > 100000 nM
CCRF-CEM leukemia
  GI50: 426 nM
  TGI: > 100000 nM
CAKI-1 renal
  GI50: 1650 nM
  TGI: > 100000 nM
SF-295 CNS
  GI50: 486 nM
  TGI: > 100000 nM
U251 CNS
  GI50: 470 nM
  TGI: > 100000 nM
A549 NSCLC
  GI50: 448 nM
  TGI: > 100000 nM
MOLT-4 leukemia
  GI50: 432 nM
  TGI: 4070 nM
M14 melanoma
  GI50: 360 nM
  TGI: > 49200 nM
UACC-257 melanoma
  GI50: 547 nM
  TGI: > 75500 nM
SW-620 colon
  GI50: 337 nM
NCI-H460 lung
  GI50: 2620 nM
  TGI: > 100000 nM
LOX IMVI melanoma
  GI50: 244 nM
KM12 colon
  GI50: 322 nM
  TGI: 971 nM
SR leukemia
  GI50: 517 nM
  TGI: > 100000 nM

Reference: PubChem BioAssay (NCI)
